Test results: PubChem BioAssay AID2060512 (Molecular Pharmacology Branch, DTP, NCI, 2025)

System: 186277-243-T-J2-PDC complex spheroid viability
Assay: Anticancer human tumor 186277-243-T-J2-PDC patient-derived colon adenocarcinoma cell line growth inhibition [GQUAD]
Settings: for IC50: curve of first compound; for viability, T/C: stronger effect = lower value; active = viability on the fitted dose curve at most 10% of control; inactive = the rest
Text: DNA G-quadruplex Stabilizer Agents in Combinations in Complex Spheroids
A high-throughput screen of multi-cell type tumor spheroids was designed to identify active combinations of DNA G-quadruplex stabilizer agents and targeted small molecules. Complex spheroids include a stromal component modeled by human endothelial cells (HUVEC) and fibroblasts modeled by human mesenchymal stem cells (MSCs). The concentration ranges selected for each drug and investigational agent were based upon clinically achievable concentrations if the clinical Cmax of the agent was known.
Compounds. The drugs and investigational agents: pidnarulex (CX-5461; NSC782164), APTO-253 (NSC789042), BRACO-19 (NSC847499), peposertib (NSC802822), ceralasertib (NSC780249), elimusertib (NSC800525), camonsertib (NSC841442), AZD-1390 (NSC803789), olaparib (NSC753686), talazoparib (NSC767125), ART-558 (NSC835418), sotorasib (NSC818433), MRTX-1133 (NSC836407), SN-38 (NSC673596), topotecan (NSC609699), etoposide (NSC141540), doxorubicin (NSC123127), gemcitabine (NSC613327), 5-fluorouracil (NSC19893), paclitaxel (NSC125973), vemurafenib (NSC761431), panobinostat (NSC761190), R-306465 (JNJ-16241199; NSC773264), adavosertib (NSC754352), TP-3654 (NSC805149), carboplatin (NSC241240), KSQ-4279 (NSC840948), and staurosporine (NSC755774) were obtained from the National Cancer Institute (NCI) Developmental Therapeutics Program Chemical Repository (34). The FDA-approved anticancer drug set is available from the NCI Developmental Therapeutics Program. […] The stock solutions were prepared in dimethyl sulfoxide (DMSO, Sigma-Aldrich, St. Louis, MO, cat. D2650) at 800-fold the tested concentration and stored at -70 degrees C prior to their use. All drugs and investigational agents were tested over a range starting from a high concentration at or near the clinical Cmax and decreasing in half-log increments. If the clinical Cmax for an agent had not been determined, the highest concentration tested was 10 microM.
2.3 Cell Culture. All cells were maintained in an incubator at 37 degrees C and 5% CO2 with 95% humidity. The PDC lines were cultured according to standard operating procedures established by the NCI PDMR. All PDCs were thawed and cultured in Matrigel-coated flasks prepared with a working solution of 1X Ham's F-12 nutrient mix, without supplementation (Invitrogen, cat. 11765054), 100 U/mL penicillin-streptomycin (Invitrogen, cat. 15140122), and 2.5% Matrigel (Corning Inc., cat. 354248) for the first three passages. The 857933-349-R-J2-PDC line was cultured in 6C/Colon 1B media, which includes advanced DMEM/F-12 (Thermo Fisher Scientific, cat. 12634028), 10 mM HEPES (Thermo Fisher Scientific, cat. 15630080), 1X GlutaMAX supplement (Thermo Fisher Scientific, cat. 35050061), 0.1 mg/mL primocin (InvivoGen, cat. ant-pm-2), 10% defined fetal bovine serum, heat inactivated (HyClone Laboratories Inc., cat. SH30070.03HI), 50% L-WRN conditioned media (ATCC, cat. CRL-3276), 1.25 mM N-Acetyl-L-cysteine (Sigma-Aldrich, cat. A9165), 10 mM nicotinamide (Sigma-Aldrich, cat. N0636), 1X B-27 supplement (Thermo Fisher Scientific, cat. 17504044), 1X N-2 supplement (Thermo Fisher Scientific, cat. 17502048), 10 microM Y-27632 dihydrochloride (Tocris Bioscience, cat. 1254), and 50 ng/mL human EGF recombinant protein (Thermo Fisher Scientific, cat. PHG0311). The 485176-168-R4-J1-PDC line was cultured in Panc media, which includes all 6C/Colon 1B media components plus 100 ng/mL human FGF-10 (Thermo Fisher Scientific, cat. 100-26), 500 nM SB-431542 (Selleckchem, cat. S1067), and gastrin (Tocris, cat. 3006).
[…]
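Also: spheroids exposed to drugs for 7 days.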

Cc1[nH]c2ccccc2c1CCNCc1ccc(/C=C/C(=O)NO)cc1 + Cc1cnc(CNC(=O)c2c(=O)c3ccc(N4CCCN(C)CC4)nc3n3c2sc2ccccc23)cn1
active: viability, T/C (second compound 0.0316 µM, first compound 0.0999 µM) 13.6% | viability, T/C (second compound 0.0316 µM, first compound 0.316 µM) 1.14% | viability, T/C (second compound 0.1 µM, first compound 0.316 µM) 0.78% | viability, T/C (second compound 0.316 µM, first compound 0.316 µM) 1.35% | viability, T/C (second compound 1 µM, first compound 0.0999 µM) 4.65% | viability, T/C (second compound 1 µM, first compound 0.316 µM) 0.08% | viability, T/C (second compound 3.16 µM, first compound 0.0999 µM) 0.18% | viability, T/C (second compound 3.16 µM, first compound 0.316 µM) 0.11% | viability, T/C (second compound 10 µM, first compound 0.0999 µM) 0.27% | viability, T/C (second compound 10 µM, first compound 0.316 µM) 0.24%
< 0.999 nM: IC50 (second compound 1 µM) | IC50 (second compound 3.16 µM) | IC50 (second compound 10 µM)
inactive: viability, T/C (second compound 0.0316 µM, first compound 0.000999 µM) 108% | viability, T/C (second compound 0.0316 µM, first compound 0.00316 µM) 101% | viability, T/C (second compound 0.0316 µM, first compound 0.00999 µM) 110% | viability, T/C (second compound 0.0316 µM, first compound 0.0316 µM) 48.9% | viability, T/C (second compound 0.1 µM, first compound 0.000999 µM) 77.5% | viability, T/C (second compound 0.1 µM, first compound 0.00316 µM) 79.7% | viability, T/C (second compound 0.1 µM, first compound 0.00999 µM) 61.4% | viability, T/C (second compound 0.1 µM, first compound 0.0316 µM) 36.7% | viability, T/C (second compound 0.1 µM, first compound 0.0999 µM) 15.4% | viability, T/C (second compound 0.316 µM, first compound 0.000999 µM) 58.4% | viability, T/C (second compound 0.316 µM, first compound 0.00316 µM) 52.8% | viability, T/C (second compound 0.316 µM, first compound 0.00999 µM) 49.2% | viability, T/C (second compound 0.316 µM, first compound 0.0316 µM) 34.9% | viability, T/C (second compound 0.316 µM, first compound 0.0999 µM) 9.31% | viability, T/C (second compound 1 µM, first compound 0.000999 µM) 40.5% | viability, T/C (second compound 1 µM, first compound 0.00316 µM) 40.9% | viability, T/C (second compound 1 µM, first compound 0.00999 µM) 38.4% | viability, T/C (second compound 1 µM, first compound 0.0316 µM) 20% | viability, T/C (second compound 3.16 µM, first compound 0.000999 µM) 35% | viability, T/C (second compound 3.16 µM, first compound 0.00316 µM) 38.6% | viability, T/C (second compound 3.16 µM, first compound 0.00999 µM) 28.3% | viability, T/C (second compound 3.16 µM, first compound 0.0316 µM) 21.6% | viability, T/C (second compound 10 µM, first compound 0.000999 µM) 34.7% | viability, T/C (second compound 10 µM, first compound 0.00316 µM) 36.3% | viability, T/C (second compound 10 µM, first compound 0.00999 µM) 28.8% | viability, T/C (second compound 10 µM, first compound 0.0316 µM) 18.9%
17.9 nM: IC50 (second compound 0.1 µM)
30.9 nM: IC50 (second compound 0.0316 µM)
10.2 nM: IC50 (second compound 0.316 µM)
